One data set concerns fibrinogen. In words: Amount of fibrinogen in sodium citrate-containing plasma of dogs, thrombin time method. The format is in vivo. Conditions: dog sodium citrate plasma, Day 7-4 hr minus Day0-4 hr; FEN 20 mg/kg and/or PIT 2 mg/kg orally once a day for 7 days; average ± standard error. As to the method:
(§1) Four hours (Day0-4 hr) and 24 hours (Day0-24 hr) after feeding on the day before the administration start day, blood was collected from antebrachial radial veins, and serum and plasma containing sodium citrate (a citric sodium aqueous solution having a concentration of 3.8% by weight) were obtained. Then using the serum, the total cholesterol (TC), the triglyceride (TG), the phospholipid (PL), and the free fatty acid (NEFA) were quantitatively determined by a Toshiba automatic analyzer (manufactured by Toshiba Medical Systems Corporation, TBA-120FR). Moreover, using the sodium citrate-containing plasma, the amount of fibrinogen was quantitatively determined in accordance with the thrombin time method.
(§2) Incidentally, feeding was performed immediately after every administration.
(§3) Blood was collected after 4 hours of the seventh administration (Day7-4 hr). Using the same manner as in the case of the Day0-4 hr, serum and sodium citrate-containing plasma were obtained, and each of the examinations was performed.
The quantitation results were shown as “an average value±a standard error”. […] Incidentally, the obtained value from each test was regarded as a significant difference when the difference value was less than 5%.

Data set [1] concerns lipid and others in blood (TC, TG, PL, NEFA in serum). Briefly: Decrease of lipid in blood by combination use of fenofibrate and pitavastatin in dog (serum TC, TG, PL, NEFA). The format is in vivo. As to the method:
Dogs [female and male beagles (YAKUKEN BEAGLE) (11 male dogs and 2 female dogs, 27 to 73 months old)] were used for the examination. Incidentally, each of the dogs was accommodated in a separate bracket cage in a breeding room under the following conditions: a room temperature of 23±3° C., a humidity of 50±10%, a light period of 8:00 to 20:00, and a dark period of 20:00 to 8:00. Moreover, the dog was given 300 g of CD-5M (manufactured by CLEA Japan, Inc.) as a food once a day. Incidentally, the dog was freely allowed to have tap water.
as §1, §2, §3
Incidentally, the obtained value from each test was regarded as a significant difference when the difference value was less than 5%.
Incidentally, the relative index of each component was calculated based on the formula: (the average value of the concentration in the blood after the administration)/(the average value of the concentration in the blood before the administration).

The conditions of data set [2]: pitavastatin 4 mg a day for 6 days vs combined with fenofibrate 160 mg a day or gemfibrozil 600 mg twice a day for 7 days; cited from earlier work.
Setting [3] is: Day 7-4 hr minus Day0-4 hr, FEN 20 mg/kg and/or PIT 2 mg/kg orally once a day for 7 days, average ± standard error.
Where [4] appears, read: Day 7-4 hr, FEN 20 mg/kg and/or PIT 2 mg/kg orally for 7 days.

The structures appear in SMILES notation.

For `CC(C)OC(=O)C(C)(C)Oc1ccc(C(=O)c2ccc(Cl)cc2)cc1` [FEN, Fenofibrate], the ΔFibrinogen in the data set on fibrinogen turned out to be 6 ± 22 mg/dL. Further, in data set [1] (setting [3]), the ΔNEFA is given as −25 ± 20 μEq/L, the ΔPL was -71 ± 11 mg/dL and the ΔTG is -38.7 ± 16.3 mg/dL.
In the case of `O=C(O)C[C@H](O)C[C@H](O)/C=C/c1c(C2CC2)nc2ccccc2c1-c1ccc(F)cc1` [PIT, Pitavastatin], in data set [2], the “Drug interactions (pharmacokinetic parameter, concentration of unchanged pitavastatin in the blood)” value is recorded as “low degree of the drug interactions”. In the data set with fibrinogen, this compound came in with a ΔFibrinogen of 11 ± 11 mg/dL. Further, in data set [1] (setting [3]), the ΔNEFA is recorded as −6 ± 102 μEq/L, the ΔPL was -61 ± 9 mg/dL, the ΔTC is -25.0 ± 3.6 mg/dL and the ΔTG was -11.5 ± 4.8 mg/dL. Further, in data set [1] (setting [4]), the “Relative index of NEFA (average concentration after/before administration)” value is given as 0.978, the “Relative index of PL (average concentration after/before administration)” value is 0.795, the “Relative index of TC (average concentration after/before administration)” value is recorded as 0.797 and the “Relative index of TG (average concentration after/before administration)” value came to 0.791.

The values above are taken from patent publication US20090318496A1, “PREPARATION CONTAINING FIBRATE AGENT AND PROCESS FOR PRODUCING THE SAME” (ASKA Pharmaceutical Co., Ltd., priority 2006, published 2009).
